Data as given in PMC10574475, “Development and Validation of a UHPLC–MS/MS Method for the Quantification of a Novel PYGB Inhibitor in Plasma: Application to Pharmacokinetic Studies” (Molecules, 2023).
“Also recorded” adds a separate entry of the source. Like-named read-outs stand apart in the source and are kept apart here.

Assays:
[1] = Brain tissue distribution after intravenous administration; format: in vivo, SD rats; details: rat; for brain tissue concentration: after injection
Procedure: Brain tissue homogenate samples for analysis were prepared by adding 9 volumes of homogenate solution (MeOH/15 mMPBS (1: 2, v/v)) to one volume of brain homogenate and diluting it 10-fold. Firstly, an aliquot of 40 μL of the brain homogenate sample to be tested (diluted sample), calibration standards, QC and diluted QC, a zero sample (with internal standard) and a blank sample (without internal standard) were added to the 96-well plate. Then, each sample (except blank samples) was quenched with 400 μL of IS1 (blank samples were quenched with 400 μL of acetonitrile), and the mixture was vortexed at 800 rpm for 10 min, followed by centrifugation at 3220× g at 4 °C for 15 min. Finally, a 50 μL aliquot of the supernatant was transferred to another clean 96-well plate and centrifuged at 3220× g for 15 min at 4 °C, then injected directly into the sample for UHPLC–MS/MS analysis.
(§1) Liquid chromatography conditions. UHPLC–MS/MS analyses were performed on an Agilent 1260 ultra-high performance liquid chromatograph (Agilent Technologies Co., Ltd., Santa Clara, CA, USA) and a QTRAP 5500 triple quadrupole tandem mass spectrometer (AB Sciex Pte. Ltd., Framingham, MA, USA). An ACQUITY UPLC BEH C18 column (2.1 × 50 mm, 1.7 µm) was used at […] with a flow rate of 0.3 mL/min and an injection volume of 2 µL. The analysis time was 5 min using an isocratic elution procedure of methanol and water (4:1, v/v).
In the preliminary brain tissue distribution study, 18 healthy male SD rats were injected with 3.2 mg/kg of compound 1 intravenously into the tail, and the animals were euthanized by CO2 inhalation at 0.25, 2 and 8 h after the administration of compound 1, respectively. Blood and brain tissue were then collected separately from each animal. Brain tissue was homogenized on wet ice using homogenizing buffer (MeOH/15 mM PBS = 1/2) at a ratio of 1:9 (1 g tissue to 9 mL buffer). The tissue homogenate was divided into two parts, 0.8 mL was used for analysis and the rest was discarded.
(§2) The data was processed using Origin 2021 to plot the drug concentration–time curve in plasma, and DAS 2.0 software was used to calculate the pharmacokinetic parameters by the […] statistical moment method, and the results of the experiments were expressed as mean ± standard deviation. Differences between groups were analyzed using SPSS 20.0, with p < 0.05 indicating statistical significance.

[2] = Stability of compound 1 in rat plasma under different storage conditions; format: in vitro ADME
Procedure: Stability was assessed under the four conditions (storage at room temperature for 12 h, […] for 24 h, refrigerator storage at −20 °C for 10 days, and freeze-thawing at −80 °C to 25 °C for 3 cycles) using the QC working solution (2.5, 800 ng/mL), and six preparations were made in parallel for each concentration. The stability of compound 1 in rat plasma was evaluated by calculating the peak area ratio (compound 1/IS) in plasma sample.

[3] = Plasma pharmacokinetics after intravenous administration (UHPLC–MS/MS); format: in vivo, SD rats; details: rat plasma; for AUC(0-inf) / AUC(0-t) / Cmax / Vd / clearance / half-life: both sexes, SD
Procedure: 50 μL of the plasma to be tested was aspirated precisely and placed in a 1.5 mL centrifuge tube. Then 5 μL of internal standard working solution and 150 μL of methanol were added sequentially to the centrifuge tube, and the tube was vortexed for 60 s and centrifuged at 6147× g for 10 min. Finally, 100 μL of supernatant was taken and added to the injection vial for quantitative analysis by UHPLC–MS/MS.
as §1
In the plasma pharmacokinetic study, 30 healthy SD rats (half male and half female) were selected and randomly divided into 3 groups of 10 rats each. Three groups of SD rats were injected with a single dose of compound 1 (0.8 mg/kg, 1.6 mg/kg, 3.2 mg/kg) by tail vein, respectively. At 0.084, 0.25, 1, 2, 4, 6, 8, 12, 24 h after administration, 0.5 mL of blood was collected from the fundus venosus in heparin-anticoagulated tubes, and the plasma was separated by centrifugation at 6149× g for 10 min, and then placed in 1.5 mL Eppendorf tubes and stored in the refrigerator at −80 °C for measurement.
as §2

PYGB = system: PYGB; design: method as in PMID 36234871, PMID 36838691, PMID 36108587; details: previous studies; read-out: IC50 of PYGB inhibition; cited from earlier work
[4] = male, Sprague-Dawley (SD), brain tissue, 3.2 mg/kg iv
[5] = 3.2 mg/kg iv, 0.25 h, 3.2 mg/kg

Question: For `CCCC1(CCC)NC(=O)c2cc(NC(=O)c3cc4cc(Cl)ccc4[nH]3)ccc2O1` [compound 1, 5-chloro-N-(4-oxo-2,2-dipropyl-3,4-dihydro-2H-benzo[e][1,3]oxazin-6-yl)-1H-indole-2-carboxamide], which “AUC0–∞” value ([1]; brain tissue, 3.2 mg/kg iv) is on record?
Answer: 668 ng·h/g

Question: What about the concentration at 0.25 h ([1]; male, SD, brain, iv, 3.2 mg/kg, 3.2 mg/kg iv, 0.25 h, read-out: CBrain (concentration in brain tissue)) of the same compound?
Answer: 440 ± 19.1 ng/g

Question: And the concentration at 2 h ([1]; male, SD, brain, iv, 3.2 mg/kg, 3.2 mg/kg iv, 2 h, read-out: CBrain (concentration in brain tissue))?
Answer: 111 ± 23.9 ng/g

Question: And the concentration at 8 h ([1]; male, SD, brain, iv, 3.2 mg/kg, 3.2 mg/kg iv, 8 h, read-out: CBrain (concentration in brain tissue))?
Answer: 4.17 ± 7.22 ng/g

Question: And the Kp at 0.25 h ([1]; male, SD, brain/plasma, iv, 3.2 mg/kg, 3.2 mg/kg iv, 0.25 h, read-out: CBrain/CPlasma ratio)?
Answer: 0.112 ± 0.0185

Question: And the Kp at 2 h ([1]; male, SD, brain/plasma, iv, 3.2 mg/kg, 3.2 mg/kg iv, 2 h, read-out: CBrain/CPlasma ratio)?
Answer: 0.112 ± 0.0292

Question: What about the Kp at 8 h ([1]; male, SD, brain/plasma, iv, 3.2 mg/kg, 3.2 mg/kg iv, 8 h, read-out: CBrain/CPlasma ratio) of the same compound?
Answer: 0.09 ± 0.148

Question: What about the concentration at 0.25 h ([1]; male, SD, plasma, iv, 3.2 mg/kg, 3.2 mg/kg iv, 0.25 h, read-out: CPlasma (concentration in plasma)) of the same compound?
Answer: 4020 ± 677 ng/g

Question: And the concentration at 2 h ([1]; male, SD, plasma, iv, 3.2 mg/kg, 3.2 mg/kg iv, 2 h, read-out: CPlasma (concentration in plasma))?
Answer: 1020 ± 275 ng/g

Question: What about the concentration at 8 h ([1]; male, SD, plasma, iv, 3.2 mg/kg, 3.2 mg/kg iv, 8 h, read-out: CPlasma (concentration in plasma)) of the same compound?
Answer: 32.9 ± 14.5 ng/g

Question: What about the Cmax ([1]; male, SD, plasma, 3.2 mg/kg iv) of the same compound?
Answer: 4890 ng/g

Question: What about the Tmax ([1]; male, SD, plasma, 3.2 mg/kg iv) of the same compound?
Answer: 0 h

Question: What about the half-life ([1]; male, SD, plasma, 3.2 mg/kg iv) of the same compound?
Answer: 1.14 h

Question: What about the Cmax [1, 4] of the same compound?
Answer: 440 ng/g

Question: What about the MRT [1, 4] of the same compound?
Answer: 1.65 h

Question: What about the Tmax [1, 4] of the same compound?
Answer: 0.25 h

Question: And the half-life [1, 4]?
Answer: 1.18 h

Question: And the MRT ([1]; male, Sprague-Dawley (SD), plasma, 3.2 mg/kg iv)?
Answer: 1.47 h

Question: What about the “AUC0–∞” value ([1]; plasma, 3.2 mg/kg iv) of the same compound?
Answer: 6659 ng·h/g

Question: What about the “CBrain (concentration in brain tissue)” value [1, 5] of the same compound?
Answer: 440.0 ± 19.1 ng/g

Question: What about the CBrain/CPlasma ratio [1, 5] of the same compound?
Answer: 0.11 ± 0.019

Question: And the “CBrain (concentration in brain tissue)” value ([1]; 3.2 mg/kg iv, 2 h, 3.2 mg/kg)?
Answer: 111.0 ± 23.9 ng/g

Question: What about the CBrain/CPlasma ratio ([1]; 3.2 mg/kg iv, 2 h, 3.2 mg/kg) of the same compound?
Answer: 0.11 ± 0.029

Question: And the “CBrain (concentration in brain tissue)” value ([1]; 3.2 mg/kg iv, 8 h, 3.2 mg/kg)?
Answer: 4.2 ± 7.2 ng/g

Question: What about the brain tissue concentration ([1]; 0.25 h (abstract)) of the same compound?
Answer: 440 ± 19.1 ng/g

Question: What about the brain tissue concentration ([1]; 2 h (abstract)) of the same compound?
Answer: 111 ± 23.9 ng/g

Question: And the “crossing of the blood–brain barrier” value ([1]; iv)?
Answer: able to cross the blood–brain barrier; also recorded: could quickly cross the blood–brain barrier

Question: What about the “Stability, RE” value ([2]; 2.5 ng/mL, auto-sampler (24 h), 4 °C) of the same compound?
Answer: 13.81%

Question: And the “Stability, RE” value ([2]; 2.5 ng/mL, room temperature (12 h))?
Answer: 0.50%

Question: And the “Stability, RE” value ([2]; 2.5 ng/mL, storage at −20 °C (10 days))?
Answer: 12.30%

Question: What about the “Stability, RE” value ([2]; 2.5 ng/mL, thaw and freeze (from −80 °C to 25 °C), 3 cycles) of the same compound?
Answer: 12.40%

Question: And the “Stability, RE” value ([2]; 800 ng/mL, auto-sampler (24 h), 4 °C)?
Answer: −3.20%

Question: And the “Stability, RE” value ([2]; 800 ng/mL, room temperature (12 h))?
Answer: 1.03%

Question: And the “Stability, RE” value ([2]; 800 ng/mL, storage at −20 °C (10 days))?
Answer: −0.65%

Question: And the “Stability, RE” value ([2]; 800 ng/mL, thaw and freeze (from −80 °C to 25 °C), 3 cycles)?
Answer: −3.64%

Question: What about the AUC(0-inf) ([3]; 0.8 mg/kg iv) of the same compound?
Answer: 900 ± 441 ng·h/mL

Question: And the AUC(0-t) ([3]; 0.8 mg/kg iv)?
Answer: 895 ± 440 ng·h/mL

Question: And the Cmax ([3]; 0.8 mg/kg iv)?
Answer: 1180 ± 361 ng/mL

Question: What about the Vd ([3]; 0.8 mg/kg iv) of the same compound?
Answer: 6.43 ± 3.48 L/kg

Question: And the clearance ([3]; 0.8 mg/kg iv)?
Answer: 16.7 mL/min/kg

Question: What about the half-life ([3]; 0.8 mg/kg iv) of the same compound?
Answer: 4.56 ± 2.17 h

Question: And the AUC(0-inf) ([3]; 1.6 mg/kg iv)?
Answer: 1610 ± 371 ng·h/mL

Question: And the AUC(0-t) ([3]; 1.6 mg/kg iv)?
Answer: 1600 ± 372 ng·h/mL

Question: And the Cmax ([3]; 1.6 mg/kg iv)?
Answer: 2030 ± 289 ng/mL

Question: And the Vd ([3]; 1.6 mg/kg iv)?
Answer: 7.51 ± 6.15 L/kg

Question: And the clearance ([3]; 1.6 mg/kg iv)?
Answer: 17.3 mL/min/kg

Question: What about the half-life ([3]; 1.6 mg/kg iv) of the same compound?
Answer: 4.8 ± 3.22 h

Question: And the AUC(0-inf) ([3]; 3.2 mg/kg iv)?
Answer: 3630 ± 973 ng·h/mL

Question: And the AUC(0-t) ([3]; 3.2 mg/kg iv)?
Answer: 3630 ± 970 ng·h/mL

Question: What about the Cmax ([3]; 3.2 mg/kg iv) of the same compound?
Answer: 3710 ± 683 ng/mL

Question: What about the Vd ([3]; 3.2 mg/kg iv) of the same compound?
Answer: 4.14 ± 1.23 L/kg

Question: And the clearance ([3]; 3.2 mg/kg iv)?
Answer: 15.7 mL/min/kg

Question: What about the half-life ([3]; 3.2 mg/kg iv) of the same compound?
Answer: 3.08 ± 0.58 h

Question: And the linearity of pharmacokinetics ([3]; iv, dose range 0.8–3.2 mg/kg)?
Answer: linear pharmacokinetic characteristics; also recorded: linear pharmacokinetic profile

Question: And the IC50 (PYGB)?
Answer: 0.0903 µM
